Measured values: US20150216871A1, “Use of a Humic Acid Preparation for Treating Warm-Blooded Animals” (WH […] WEINBÖHLA GMBH, priority 2012, published 2015)

Assays:
Bacillus badius = experiment: MIC of glyphosate and neutralisation by CLK-GA, micro dilution method in RCM Bouillon; format: cell-based
Excerpt: (§1) The pathogen Enterococcus faecalis was isolated from the microalgae Chlorella vulgaris to citrate-acid-tween-carbonate (CATC) agar. Suspicious colonies (gram positive, catalase negative cocci) were inoculated to blood agar plates (oxoid) and differentiated by using biochemical tests. The species differentiation was confirmed by means of MALDI-TOF-MS. The isolation of the pathogen Bacillus badius was done from Chlorella vulgaris to blood agar (oxoid). The species differentiation was done based on biochemical parameters. The confirmation was done by means of MALDI-TOF-MS.
(§2) Commercially available glyphosate preparation Roundup UltraMax® (450 g/l glyphosate as isopropylamine salt on SL formulation) was used for the test.
(§3) The value for the minimal inhibitory concentration of glyphosate for the indicator germs (MIC) was determined by using micro dilution method (MID) in accordance with the current specifications of the National Committee for Clinical Laboratory Standards (NCCLS). It was carried out for E. faecalis and B. Badius in RCM Bouillon (SIFIN).
(§4) The determination of the neutralising effect of humic acid product CLK-GA for glyphosate was done through glyphosate MIC. The MIC determinations for glyphosate and glyphosate-CLK-GA mixture was carried out in RCM Bouillon as described above. CLK-GA was used in the concentrations of 1.0, 0.5 and 0.25 mg/ml. The neutralisation of glyphosate was carried out in RCM Bouillon in the concentrations of 300 μg/ml, 600 μg/ml, 1200 μg/ml and 2400 μg/ml mixed with 1 mg/ml, 0.5 mg/ml and 0.25 mg/ml CLK-GA and kept overnight at 37° C. After centrifugation (3000 U/min) and filtration of the individual formulations through a centrifugal filter (3Kda, VWR, Mexico)m […] KbE E. faecalis and B. Badius was given to these. After growing it overnight at 37° C., the contents of each tube was spread on CATC agar or blood agar and was evaluated after 48 h.

Enterococcus faecalis = experiment: as above; format: cell-based
Excerpt: as §1, §2, §3, §4

[1] = 10^4 KbE/ml suspension, end concentration 300 μg/ml glyphosate and/or 1 mg/ml CLK-GA

O=C(O)CNCP(=O)(O)O [Glyphosate, glyphosate]
growth / elimination of germs in suspension (Bacillus badius; [1]): growth was absent
MIC (Bacillus badius; Pseudobacillus badius, read-out: MIC values Glyphosate): 150 µg/mL
growth / elimination of germs in suspension (Enterococcus faecalis; [1]): growth was absent
MIC (Enterococcus faecalis; Enterococcus faecalis, read-out: MIC values Glyphosate): 200 µg/mL
